Experiments:
[1] = target: T1, Metabotropic glutamate receptor 5 (Rattus norvegicus, UniProt P31424); assay: Antagonist activity at rat mGluR5 expressed in HEK293 cells assessed as inhibition of glutamate-induced calcium mobilization by Fluo-4 dye-based fluorescence assay; type: functional, cell-based
[2] = target: T1, Metabotropic glutamate receptor 5; assay: Displacement of [3H]methoxy-PEPgamma from mGluR5 in rat cerebral cortex membranes after 60 mins by scintillation counting analysis; type: cell membranes, Membrane
[3] = target: T2, Metabotropic glutamate receptor 5 (Homo sapiens, UniProt P41594); assay: Antagonist activity at human mGluR5 expressed in CHO cells assessed as inhibition of glutamate-induced effect by aequorin bioluminescence assay; type: cell-based
[4] = target: T2, Metabotropic glutamate receptor 5; assay: Antagonist activity at mGluR5 (unknown origin)
[5] = target: T2, Metabotropic glutamate receptor 5; assay: Antagonist activity at human mGluR5d by fluo-3-based FLIPR assay

T2 sequence (P41594 whole entry): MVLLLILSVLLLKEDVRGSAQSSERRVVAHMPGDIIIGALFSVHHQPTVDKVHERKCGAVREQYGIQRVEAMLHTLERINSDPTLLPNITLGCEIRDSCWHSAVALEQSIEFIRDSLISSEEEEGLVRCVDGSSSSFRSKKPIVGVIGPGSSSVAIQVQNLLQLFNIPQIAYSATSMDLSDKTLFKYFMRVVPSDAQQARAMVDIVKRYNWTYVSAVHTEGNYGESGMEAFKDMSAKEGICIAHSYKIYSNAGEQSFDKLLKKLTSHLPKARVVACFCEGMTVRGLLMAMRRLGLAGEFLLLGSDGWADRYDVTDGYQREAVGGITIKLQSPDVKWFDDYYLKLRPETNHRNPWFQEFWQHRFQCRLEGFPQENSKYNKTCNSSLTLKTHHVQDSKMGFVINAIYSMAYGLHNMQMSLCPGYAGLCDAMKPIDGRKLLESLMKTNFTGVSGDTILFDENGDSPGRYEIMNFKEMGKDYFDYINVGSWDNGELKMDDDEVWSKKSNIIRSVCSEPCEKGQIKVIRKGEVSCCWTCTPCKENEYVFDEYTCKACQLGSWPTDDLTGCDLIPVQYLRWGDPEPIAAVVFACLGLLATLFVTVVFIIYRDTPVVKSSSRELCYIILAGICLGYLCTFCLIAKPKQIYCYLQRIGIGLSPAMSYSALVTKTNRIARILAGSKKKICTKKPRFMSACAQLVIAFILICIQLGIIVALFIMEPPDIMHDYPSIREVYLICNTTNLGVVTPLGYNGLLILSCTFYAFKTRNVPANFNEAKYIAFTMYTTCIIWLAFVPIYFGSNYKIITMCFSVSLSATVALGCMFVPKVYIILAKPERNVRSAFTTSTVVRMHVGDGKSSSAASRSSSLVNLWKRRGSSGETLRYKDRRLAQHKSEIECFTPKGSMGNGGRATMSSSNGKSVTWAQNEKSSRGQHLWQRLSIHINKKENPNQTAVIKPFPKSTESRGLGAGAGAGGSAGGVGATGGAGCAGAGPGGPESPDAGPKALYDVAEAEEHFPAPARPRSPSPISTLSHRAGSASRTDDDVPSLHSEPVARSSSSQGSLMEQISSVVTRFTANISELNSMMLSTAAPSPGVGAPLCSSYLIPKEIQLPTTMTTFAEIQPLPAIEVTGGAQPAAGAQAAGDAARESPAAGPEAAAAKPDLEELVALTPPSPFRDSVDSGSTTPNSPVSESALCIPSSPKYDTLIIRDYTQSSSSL
T1 sequence (P31424 whole entry): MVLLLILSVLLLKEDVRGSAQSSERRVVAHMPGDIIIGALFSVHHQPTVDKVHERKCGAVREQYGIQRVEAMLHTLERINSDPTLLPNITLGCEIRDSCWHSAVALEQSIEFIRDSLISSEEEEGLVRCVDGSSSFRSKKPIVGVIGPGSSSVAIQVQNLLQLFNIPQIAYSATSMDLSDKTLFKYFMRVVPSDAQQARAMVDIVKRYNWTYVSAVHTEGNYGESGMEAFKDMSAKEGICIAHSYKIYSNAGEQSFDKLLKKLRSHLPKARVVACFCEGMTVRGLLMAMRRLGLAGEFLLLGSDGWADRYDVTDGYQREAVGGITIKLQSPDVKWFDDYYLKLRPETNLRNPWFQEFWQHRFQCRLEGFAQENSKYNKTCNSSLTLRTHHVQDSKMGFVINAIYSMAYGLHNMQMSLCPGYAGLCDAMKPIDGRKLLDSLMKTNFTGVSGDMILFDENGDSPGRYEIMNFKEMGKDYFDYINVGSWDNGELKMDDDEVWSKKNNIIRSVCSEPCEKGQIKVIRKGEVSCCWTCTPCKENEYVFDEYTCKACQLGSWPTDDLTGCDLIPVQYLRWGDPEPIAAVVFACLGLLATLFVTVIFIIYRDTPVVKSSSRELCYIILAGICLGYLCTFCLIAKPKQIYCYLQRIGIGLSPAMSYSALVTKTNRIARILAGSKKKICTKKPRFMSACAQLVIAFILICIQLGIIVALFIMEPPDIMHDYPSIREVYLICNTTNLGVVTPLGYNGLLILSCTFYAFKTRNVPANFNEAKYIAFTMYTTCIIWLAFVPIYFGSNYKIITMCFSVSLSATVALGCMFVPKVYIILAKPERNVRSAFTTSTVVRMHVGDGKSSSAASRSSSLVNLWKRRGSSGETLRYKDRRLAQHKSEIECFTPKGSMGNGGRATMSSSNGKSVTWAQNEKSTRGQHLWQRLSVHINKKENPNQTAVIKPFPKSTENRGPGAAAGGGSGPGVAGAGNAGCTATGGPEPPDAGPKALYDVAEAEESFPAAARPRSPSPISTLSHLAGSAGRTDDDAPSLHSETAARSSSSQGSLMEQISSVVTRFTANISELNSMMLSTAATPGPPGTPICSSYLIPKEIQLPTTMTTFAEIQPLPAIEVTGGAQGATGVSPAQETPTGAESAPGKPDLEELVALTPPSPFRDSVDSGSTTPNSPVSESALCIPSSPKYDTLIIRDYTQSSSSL

## N#Cc1cnc(Nc2nc3ccccc3o2)nc1-c1ccc(F)cc1
[1]
  IC50: 0.091 µM

## Cc1cccc(C(=O)NC23CC4CC(C2)CC(NC(=O)c2cccc(C)n2)(C4)C3)n1
[2]
  Ki: 0.0067 µM

## O=C(Nc1ccnc(Cl)c1)c1nnn2c1CSc1c-2ccc(F)c1Cl
[3]
  IC50: 0.00079 µM

## N#Cc1nccnc1N1CCN2[C@@H](CC[C@@H]2c2nnn(-c3cccc(Cl)c3)n2)C1 (racemic)
[4]
  IC50: 0.01 µM

## N#Cc1cccc(C#C[C@H]2CCC[C@H]3CN(c4ncccc4C#N)CCN32)c1 (racemic)
[5]
  IC50: 0.02 µM
